Usually IC50 stands for the concentration that inhibits the measured activity by half.

This is an account of results in BindingDB's records for doi:10.1016/j.ejmech.2020.112223 (2020).

This assay is described as follows: Inhibition of Influenza A virus (A/PR 8/34 (H1N1)) hemagglutinin transfected in human HeLa cells assessed as reduction in low pH-indued polykaryon formation preincubated for 15 mins followed by pH 5.2 buffer addition and measured after 5 mins by giemsa staining based microscopic analysis.

In the case of `COC(=O)C[C@H](NC(=O)OC(C)(C)C)C(=O)N(Cc1ccc(F)cc1)C1(C(=O)NCc2ccccc2)CCN(Cc2ccccc2)CC1`, the IC50 turned out to be 12 µM.
